Test results reported in publication PMC11642940, “A New Demand for Improved Selectivity and Potency of Cyanine Dyes as Antiproliferative Agents Against Colorectal Cancer Cells” (Molecules, 2024).

What was measured:
NHDF cell line = test: Phototoxicity assay (MTT after white light irradiation); type: cell-based; settings: Homo sapiens, light or radiation study, 30 min white light irradiation (30 W RGB LED) after 48 h, 72 h in total
Procedure: While this work focused on monomethine cyanine dyes designed to be used at the outer edge of the “phototherapeutic window” (650–850 nm), photocytotoxicity and photostability studies were carried out for cyanines 5 and 10, as part of an effort to determine whether there would be synergistic action from light exposure on their cytotoxicity. A 30 W RGB LED light source, previously validated by our research group, was applied to the NHDF cell line using the MTT assay. […] These reductions in cytotoxicity align with previous studies on similar compounds and are likely due to some level of photodegradation.
A phototoxicity evaluation was performed on the NHDF cell line with a similar methodology to the MTT assay and following previously validated methods. After 48 h of incubation with increasing concentrations ranging from 0.001 to 100 μM, cells were subjected to 30 min of constant irradiation with the white light of a Luxtar (Yancheng, Jiangsu, China) RGBW LED projector (220–240 V and 30 W). After this irradiation, the cells were incubated at 37 °C for an additional 24 h (72 h in total). This assay was performed in quadruplicate, and two independent assays were realized.

Caco-2 cells [1] = test: Fluorescence microscopy (cell penetration, intracellular localization); type: cell-based, human; settings: Caco-2, 1 µM, 20 h, Hoescht 33342 counterstain
Procedure: The cells were incubated with the dyes for 20 h, followed by fixation and staining with Hoescht 33342, a commonly used cell-permeant nucleic acid stain.
Fluorescence microscopy was used to confirm whether the compounds under study cross the cell membrane, and to understand where they are located within the cell (nucleus and/or cytoplasm). To this end, the procedure previously described in Lima et al. was followed. Hoescht 33342 was used as a specific marker. Cells were seeded in 24-well culture plates containing sterile circular coverslips of 15 mm diameter. After 48 h for cell adhesion, they were incubated with the compounds for 20 h. After this incubation period, the cells were washed three times with PBS and the fixation process was carried out. To do this, the contents of the wells were removed, and a 4% formalin solution was added until the wells were covered, followed by an incubation at room temperature for 15 min. Then, the washing process was repeated three times with PBS, and the cells were then incubated with a solution of Hoescht 33342 (1:500) for 10 min, in the dark and at room temperature. Subsequently, the wells were washed again with PBS and the slides were mounted with permanent mounting medium (Dako) and left to dry in a cool and dry place for 24 h. […]

Caco-2 cells [2] = test: Caco-2 morphological analysis (optical microscopy); settings: 72 h
Procedure: Sorbitol and 5-FU were used as positive controls, while untreated cells served as the negative control.
Caco-2 cells near confluency were trypsinized, counted, and then seeded at 3 × 10^4 cells/mL (3 mL) in 35 mm cell culture dishes previously treated for tissue culture. After cell adherence (48 h), they were incubated with solutions under study for 72 h in the absence of light. The cellular morphology was verified every 24 h using a CKX41 SF inverted microscope (Olympus, Tokyo, Japan) with 10, 20, or 40× objectives. A DC6 V digital camera (Olympus, Tokyo, Japan) coupled to the microscope was used to capture cell imaging. The morphology of cells in the presence or absence of treatments was compared.

[3] = Photostability assay (absorbance decay under white light); type: physicochemical; settings: 10 µM in PBS, after 30 min white light irradiation; 436 nm for 5, 439 nm for 10
Procedure: To further explore this, the photostability of these dyes was tested. […] A gradual linear degradation continued for at least 120 min. This degradation likely explains the decreased cytotoxicity observed in the photocytotoxicity assay.
In a 96-well plate, 100 µL of dyes 5 and 10 at a concentration of 10 µM, prepared from 10 mM DMSO stock solution diluted in PBS, was added at each well. The photostability assay was performed by irradiating the as previously described for photocytotoxicity evaluation, repeated several times up to 120 min. Spectrophotometric readings were taken over the maximum absorption wavelength of each dye (436 nm for 5 and 439 nm for 10). Two independent experiments were performed in quadruplicate, and the obtained absorbance values were normalized.

Structure (SMILES) | IC50 (NHDF cell line) | cell membrane crossing, intracellular localization and fluorescence (Caco-2 cells [1]) | morphological changes of Caco-2 cells (Caco-2 cells [2]; 1 µM) | reduction in absorbance at maximum wavelength [3] | morphological changes of Caco-2 cells (Caco-2 cells [2]; 10 µM)
CN1C(=Cc2oc3ccccc3[n+]2C)C=Cc2ccccc21.Cc1ccc(S(=O)(=O)[O-])cc1 [Dye 5, 3-Methyl-2-((1-methylquinolin-2(1H)-ylidene)methyl)benzo[d]oxazol-3-ium 4-methylbenzenesulfonate] | 4.07 µM | stain a specific organelle within the nucleoplasm but does not localize in the DNA | a few apoptotic bodies | 3.7% | 
CCN1C(=Cc2sc3cc([N+](=O)[O-])ccc3[n+]2CC)Sc2ccccc21.Cc1ccc(S(=O)(=O)[O-])cc1 [Dye 10, 3-Ethyl-2-((3-ethylbenzo[d]thiazol-2(3H)-ylidene)methyl)-6-nitrobenzo[d]thiazol-3-ium 4-methylbenzenesulfonate] | 34.1 µM | significantly lower fluorescence intensity compared to dye 5 |  | 2.5% | noticeable reduction in the size of Caco-2 cells
